Source: patent US20080167358A1, “Methods for Obtaining a Fast Dissolving Imidapril Powder” (priority 2005, published 2008)

Experiment: Dissolution time of a quantity corresponding to 75 mg of Imidapril in 30 ml of water at room temperature
Assay type: physicochemical
Conditions: quantity of formulation corresponding to 75 mg of Imidapril added to 30 ml of stirred water at room temperature
Description: This crystalline condition makes it possible to obtain a quick dissolution Imidapril powder, i.e., having a total dissolution time of the powder of 30 sec for a quantity of 75 mg of Imidapril in 30 ml of water at room temperature (25° C.). […] The apparent dissolution time is noted.

- Time (s) (apparent dissolution time): 420 s
Structure (SMILES): CCOC(=O)[C@H](CCc1ccccc1)N[C@@H](C)C(=O)N1C(=O)N(C)C[C@H]1C(=O)O [Standard Imidapril, Imidapril]
